Assay results published in ChEMBL document CHEMBL2021850, “Steroidal C-21 heteroaryl thioethers. Part 3: pregn-4-eno-[3,2-c]pyrazole fused A ring modified steroids as selective glucocorticoid receptor modulators (dissociated steroids)” (Bioorg Med Chem Lett, 2012).

Assays:
Glucocorticoid receptor [1] = biological target: T1, Glucocorticoid receptor (Homo sapiens, UniProt P04150); experiment: Transrepression activity at glucocorticoid receptor in human H292 cells assessed as inhibition of TNF-induced IL8 production; type: cell-based
T1 sequence (P04150 whole entry): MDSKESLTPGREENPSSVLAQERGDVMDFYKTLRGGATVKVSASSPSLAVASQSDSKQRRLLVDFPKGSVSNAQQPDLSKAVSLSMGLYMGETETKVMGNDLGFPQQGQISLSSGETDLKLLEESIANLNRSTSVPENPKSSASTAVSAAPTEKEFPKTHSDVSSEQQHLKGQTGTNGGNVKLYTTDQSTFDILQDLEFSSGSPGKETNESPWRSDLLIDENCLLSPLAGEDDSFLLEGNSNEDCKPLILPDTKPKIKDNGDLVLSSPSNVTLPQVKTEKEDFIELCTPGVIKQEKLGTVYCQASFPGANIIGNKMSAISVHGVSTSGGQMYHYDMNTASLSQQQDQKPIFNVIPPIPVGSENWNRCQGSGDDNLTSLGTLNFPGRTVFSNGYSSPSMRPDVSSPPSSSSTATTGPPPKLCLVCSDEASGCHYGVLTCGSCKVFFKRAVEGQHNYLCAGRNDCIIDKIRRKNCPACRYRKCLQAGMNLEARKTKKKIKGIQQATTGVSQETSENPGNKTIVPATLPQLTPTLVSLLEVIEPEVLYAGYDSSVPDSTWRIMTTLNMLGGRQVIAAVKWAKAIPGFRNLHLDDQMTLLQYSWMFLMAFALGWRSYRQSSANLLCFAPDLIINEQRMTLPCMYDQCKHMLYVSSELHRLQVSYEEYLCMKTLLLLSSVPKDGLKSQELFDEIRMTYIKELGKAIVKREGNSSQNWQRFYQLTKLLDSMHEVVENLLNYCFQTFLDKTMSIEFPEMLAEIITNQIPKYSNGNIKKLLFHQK

Glucocorticoid receptor [2] = biological target: T1, Glucocorticoid receptor; experiment: Transactivation activity at glucocorticoid receptor in human HepG2 cells assessed as induction of tyrosine aminotransferase; type: ADME, cell-based
Glucocorticoid receptor [3] = biological target: T2, Glucocorticoid receptor (Rattus norvegicus, UniProt P06536); experiment: Transactivation activity at glucocorticoid receptor in rat H4II-E cells assessed as induction of tyrosine aminotransferase; type: ADME, cell-based
T2 sequence (P06536 whole entry): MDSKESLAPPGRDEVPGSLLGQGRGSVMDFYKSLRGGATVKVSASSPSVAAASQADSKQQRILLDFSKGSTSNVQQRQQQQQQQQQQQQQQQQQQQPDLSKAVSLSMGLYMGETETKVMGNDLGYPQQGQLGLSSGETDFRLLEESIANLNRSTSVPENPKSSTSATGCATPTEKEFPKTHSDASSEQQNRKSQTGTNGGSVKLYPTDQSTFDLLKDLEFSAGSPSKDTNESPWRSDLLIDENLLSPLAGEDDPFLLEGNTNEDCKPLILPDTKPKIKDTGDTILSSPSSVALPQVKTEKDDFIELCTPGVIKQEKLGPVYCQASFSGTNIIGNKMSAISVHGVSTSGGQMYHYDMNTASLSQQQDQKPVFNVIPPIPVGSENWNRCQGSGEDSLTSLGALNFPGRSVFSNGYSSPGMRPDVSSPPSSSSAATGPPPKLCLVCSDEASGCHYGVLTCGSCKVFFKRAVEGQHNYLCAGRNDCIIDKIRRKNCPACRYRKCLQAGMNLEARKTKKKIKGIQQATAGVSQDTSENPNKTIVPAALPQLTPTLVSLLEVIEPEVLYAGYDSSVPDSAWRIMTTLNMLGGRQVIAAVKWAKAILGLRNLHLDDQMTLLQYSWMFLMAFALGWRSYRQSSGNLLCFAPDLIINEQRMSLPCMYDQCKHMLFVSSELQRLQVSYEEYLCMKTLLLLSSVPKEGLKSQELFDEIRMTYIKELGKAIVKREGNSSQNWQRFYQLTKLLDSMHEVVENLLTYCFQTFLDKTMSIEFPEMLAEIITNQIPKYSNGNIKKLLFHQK

Glucocorticoid receptor [4] = biological target: T1, Glucocorticoid receptor; experiment: Transactivation activity at human glucocorticoid receptor in cells co-expressing GRE by luciferase reporter gene assay relative to control; settings: read-out: Efficacy
Glucocorticoid receptor [5] = biological target: T1, Glucocorticoid receptor; experiment: Transactivation activity at human glucocorticoid receptor in cells co-expressing GRE by luciferase reporter gene assay; settings: read-out: IC50 (the source's name)
[6] = AUC in po dosed rat; type: ADME, organism-based; settings: plasma; further: test concentration or dose not given here
[7] = Cmax in po dosed rat; type: ADME, organism-based; design: route oral; settings: in vivo; further: test concentration or dose not given here

SMILES	IC50 (Glucocorticoid receptor [1]) [nM]	IC50 (Glucocorticoid receptor [2]) [nM]	IC50 (Glucocorticoid receptor [3]) [nM]	Emax (Glucocorticoid receptor [4]) [%]	EC50 (Glucocorticoid receptor [5]) [nM]	AUC [6] [ng·h/mL]	Cmax [7] [ng/mL]
C[C@]12Cc3cnn(C4CCCCC4)c3C=C1CC[C@@H]1[C@@H]2[C@@H](O)C[C@@]2(C)[C@H]1CC[C@]2(O)C(=O)CSc1nc2ccccc2s1	7.1	400	54.7	78			
C[C@]12Cc3cnn(-c4ccccn4)c3C=C1CC[C@@H]1[C@@H]2[C@@H](O)C[C@@]2(C)[C@H]1CC[C@]2(O)C(=O)CSc1nc2ccccc2s1	179						
C[C@]12Cc3cnn(-c4ccc(F)cc4)c3C=C1CC[C@@H]1[C@@H]2[C@@H](O)C[C@@]2(C)[C@H]1CC[C@]2(O)C(=O)CSc1ccccn1	0.5	4.7	4.5				
C[C@]12CCC(=O)C=C1CC[C@@H]1[C@@H]2[C@@H](O)C[C@@]2(C)[C@H]1CC[C@]2(O)C(=O)CSc1nnc(-c2ccccc2)o1	29.2			54			
C[C@]12Cc3cnn(C4CCCCC4)c3C=C1CC[C@@H]1[C@@H]2[C@@H](O)C[C@@]2(C)[C@H]1CC[C@]2(O)C(=O)CO	2.37			96	5.57		
C[C@]12CCC(=O)C=C1CC[C@@H]1[C@@H]2[C@@H](O)C[C@@]2(C)[C@H]1CC[C@]2(O)C(=O)CSc1nc2ncccc2o1	61.3			37			
C[C@]12Cc3cnn(-c4ccc(F)cc4)c3C=C1CC[C@@H]1[C@@H]2[C@@H](O)C[C@@]2(C)[C@H]1CC[C@]2(O)C(=O)COc1cnc2ccccc2n1	1.89	98.7					
Cn1c(SCC(=O)[C@@]2(O)CC[C@H]3[C@@H]4CCC5=Cc6c(cnn6C6CCCCC6)C[C@]5(C)[C@H]4[C@@H](O)C[C@@]32C)nc2ccccc21	6.6		1000	75			
C[C@]12Cc3cnn(-c4ccc(F)cc4)c3C=C1CC[C@@H]1[C@@H]2[C@@H](O)C[C@@]2(C)[C@H]1CC[C@]2(O)C(=O)COc1ccc2ccccc2n1	1.8		44.7				
C[C@]12Cc3cnn(-c4ccccc4)c3C=C1CC[C@@H]1[C@@H]2[C@@H](O)C[C@@]2(C)[C@H]1CC[C@]2(O)C(=O)COc1cnc2ccccc2n1	3.7			56			
Cn1c(OCC(=O)[C@@]2(O)CC[C@H]3[C@@H]4CCC5=Cc6c(cnn6-c6ccc(F)cc6)C[C@]5(C)[C@H]4[C@@H](O)C[C@@]32C)nc2ccccc21	2.9		78				
C[C@]12Cc3cnn(-c4ccc(F)cc4)c3C=C1CC[C@@H]1[C@@H]2[C@@H](O)C[C@@]2(C)[C@H]1CC[C@]2(O)C(=O)CSc1nc2ccccc2c(=O)[nH]1	3	93.5	86.5				
C[C@]12Cc3cnn(-c4ccc(F)cc4)c3C=C1CC[C@@H]1[C@@H]2[C@@H](O)C[C@@]2(C)[C@H]1CC[C@]2(O)C(=O)CO	0.4	40.9	3.2			1040	240
C[C@]12Cc3cnn(C4CCCCC4)c3C=C1CC[C@@H]1[C@@H]2[C@@H](O)C[C@@]2(C)[C@H]1CC[C@]2(O)C(=O)CSc1cnc2ccccc2n1	12.4			84			
C[C@]12Cc3cnn(-c4ccc(F)cc4)c3C=C1CC[C@@H]1[C@@H]2[C@@H](O)C[C@@]2(C)[C@H]1CC[C@]2(O)C(=O)CSc1ccc2ccccc2c1	0.72	30.5	52.5				
Cc1cccc(SCC(=O)[C@@]2(O)CC[C@H]3[C@@H]4CCC5=CC(=O)CC[C@]5(C)[C@H]4[C@@H](O)C[C@@]32C)n1	127			18			

SMILES	IC50 (Glucocorticoid receptor [1]) [nM]	IC50 (Glucocorticoid receptor [2]) [nM]	IC50 (Glucocorticoid receptor [3]) [nM]	Emax (Glucocorticoid receptor [4]) [%]	EC50 (Glucocorticoid receptor [5]) [nM]	AUC [6] [ng·h/mL]	Cmax [7] [ng/mL]
C[C@]12Cc3cnn(C4CCCCC4)c3C=C1CC[C@@H]1[C@@H]2[C@@H](O)C[C@@]2(C)[C@H]1CC[C@]2(O)C(=O)CSc1ccccn1	4.4			87			
C[C@]12CCC(=O)C=C1CC[C@@H]1[C@@H]2[C@@H](O)C[C@@]2(C)[C@H]1CC[C@]2(O)C(=O)CSc1ccc(Cl)c(Cl)c1	27.2			28			
C[C@]12Cc3cnn(-c4ccc(F)cc4)c3C=C1CC[C@@H]1[C@@H]2[C@@H](O)C[C@@]2(C)[C@H]1CC[C@]2(O)C(=O)COc1nc2ccccc2s1	2.1		84				
C[C@]12Cc3cnn(-c4ccc(F)cc4)c3C=C1CC[C@@H]1[C@@H]2[C@@H](O)C[C@@]2(C)[C@H]1CC[C@]2(O)C(=O)CSc1nc2ccccc2s1	1.7	101	24.1				
C[C@]12Cc3cnn(-c4ccc(F)cc4)c3C=C1CC[C@@H]1[C@@H]2[C@@H](O)C[C@@]2(C)[C@H]1CC[C@]2(O)C(=O)CSc1ccc2ccccc2n1	5.3	18.3	24.3				
C[C@]12Cc3cnn(-c4ccccc4)c3C=C1CC[C@@H]1[C@@H]2[C@@H](O)C[C@@]2(C)[C@H]1CC[C@]2(O)C(=O)CO	0.63	143	3.23			2480	628
C[C@]12Cc3cnn(-c4ccc(F)cc4)c3C=C1CC[C@@H]1[C@@H]2[C@@H](O)C[C@@]2(C)[C@H]1CC[C@]2(O)C(=O)CSc1nccc2ccccc12	1.6	37.3	65.4				
Cn1c(SCC(=O)[C@@]2(O)CC[C@H]3[C@@H]4CCC5=Cc6c(cnn6-c6ccc(F)cc6)C[C@]5(C)[C@H]4[C@@H](O)C[C@@]32C)nc2ccccc21	1.1	88.7	174				
C[C@]12Cc3cnn(C4CCCCC4)c3C=C1CC[C@@H]1[C@@H]2[C@@H](O)C[C@@]2(C)[C@H]1CC[C@]2(O)C(=O)CSc1nc2ccccc2o1	3.12	82.1	31.6	72			
C[C@]12CCC(=O)C=C1CC[C@@H]1[C@@H]2[C@@H](O)C[C@@]2(C)[C@H]1CC[C@]2(O)C(=O)CSc1nc2ccccc2s1				30			
COc1ccc(-n2ncc3c2C=C2CC[C@@H]4[C@H]([C@@H](O)C[C@@]5(C)[C@H]4CC[C@]5(O)C(=O)CSc4nc5ccccc5s4)[C@@]2(C)C3)cc1	107						
C[C@]12Cc3cnn(-c4ccccc4)c3C=C1CC[C@@H]1[C@@H]2[C@@H](O)C[C@@]2(C)[C@H]1CC[C@]2(O)C(=O)CSc1nc2ccccc2s1	7.5	165	57.3	89			
C[C@]12Cc3cnn(-c4ccc(F)cc4)c3C=C1CC[C@@H]1[C@@H]2[C@@H](O)C[C@@]2(C)[C@H]1CC[C@]2(O)C(=O)COc1ccc2ccccc2c1	1.06	29.2	58				
C[C@]12Cc3cnn(-c4ccc(F)cc4)c3C=C1CC[C@@H]1[C@@H]2[C@@H](O)C[C@@]2(C)[C@H]1CC[C@]2(O)C(=O)CSc1ncccn1	0.6	37.7	14.3				
C[C@]12Cc3cnn(C4CCOCC4)c3C=C1CC[C@@H]1[C@@H]2[C@@H](O)C[C@@]2(C)[C@H]1CC[C@]2(O)C(=O)CSc1nc2ccccc2s1	86.4						
C[C@]12Cc3cnn(C4CCCCC4)c3C=C1CC[C@@H]1[C@@H]2[C@@H](O)C[C@@]2(C)[C@H]1CC[C@]2(O)C(=O)CSc1ccc2ccccc2n1	44.7			71			
